Here are results for 5 compounds from patent US20230312491A1, “N-SUBSTITUTED 4-(5-PHENYL-1,3,4-OXADIAZOL-2-YL)ANILINE FOR THE TREATMENT AND PROPHYLAXIS OF HEPATITIS B VIRUS INFECTION” (priority 2020, published 2023).

What all share (format): cell-based
The subject of one data set is HBsAg. Kind of data set: PHH natural infection assay, HBsAg (alphalisa). Conditions: Hepatitis B virus, Hepatocyte, 72 h, read-out: HBsAg IC50. As to the method: (§1) Detailed procedures regarding primary human hepatocyte (PHH) HBV natural infection assay are described as below. One tube of frozen PHH (10 million cells) is thawed in 37° C. water bath and then transferred to 20 mL of PHH thawing medium (Sigma, InVitroGRO HT Medium, Cat. S03319) with gently mixing. The cells were then centrifuged at […] for 5 min, the supernatant was discarded and the tube was refilled with 25 mL of PHH plating medium (Sigma, InVitroGRO CP Medium, Cat. S03317). The tube was shaken very gently to re-suspend all cells, and then 50 µl of cells were transferred to each well 384-well collagen I coated plate with appropriate liquid handling equipment, e.g. Integra VIAFLO384 or Agilent Bravo. The cells were then cultured for 24 hours in a cell incubator. For HBV infection, after PHH attachment on the culture plate, the plating medium was removed and replenished with PHH culture medium containing HBV virus. The PHH culture medium was prepared with Dulbecco’s Modified Eagle Medium (DMEM)/F12 (1: 1 in volume ratio) containing 10% fetal bovine serum (Gibco, Cat.10099141), 5 ng/mL human epidermal growth factor (Gibco, Cat.PHG0311L), 20 ng/mL dexamethasone (Sigma, Cat.D4902-100 mg), 250 ng/mL human recombinant insulin (Gibco, Cat.41400045) and 100 U/mL penicillin. HBV virus at 200 genome equivalent (GE) per cell with 4% PEG8000 (Sigma, Cat.P1458) containing culture medium were added to the PHH culture medium for infection. The cells were then cultured for 24 hours in cell incubator. Then the cell culture supernatant was removed. The HBV-infected PHH were cultured with sandwich culture method with PHH culture medium containing 1% DMSO and 0.25 mg/mL matrix gel for 72 hours. The supernatant was then refreshed with PHH culture medium containing different concentrations of testing compounds for two times with 72-hour interval. At the end of treatment, the supernatant was collected for viral markers measurements, including HBsAg, HBeAg, HBV DNA and cytotoxicity. HBsAg and HBeAg were detected using alphalisa method using their specific antibodies. For HBV DNA detection, HBV DNA Quantitative Fluorescence Diagnostic Kit (Sansure Biotech Inc.) was used following the manufacture’s protocol. Cytotoxicity was determined using Cell Counting Kit-8 (CCK8, Dojindo Molecular Technologies, Inc.).
(§2) The compounds of the present invention were tested for their capacity to inhibit HBsAg and HBeAg as described herein.
For orientation: Bead proximity is the source of the signal in Alpha formats.

Data set [1] in a line: PHH natural infection assay, cytotoxicity (Cell Counting Kit-8). The following applies: HBV-infected primary human hepatocytes, CCK8. Here is the method:
as §1
For orientation: Tetrazolium dyes change colour on reduction, which living cells bring about.

The next data set concerns HBeAg. Briefly: PHH natural infection assay, HBeAg (alphalisa). Conditions: Hepatitis B virus, Hepatocyte, 72 h, read-out: HBeAg IC50. As to the method: as §1, §2

On to `O=C(Nc1ccc(-c2nnc(-c3ccccc3)o2)cc1)c1ccc(Cl)cn1` [Example 23, 5-chloro-N-[4-(5-phenyl-1,3,4-oxadiazol-2-yl)phenyl]pyridine-2-carboxamide], for which the IC50 (commonly the midpoint of a concentration-inhibition curve) came out at 1230 nM with HBsAg and 2120 nM in the data set on HBeAg. In addition, the CC50 (as a rule, the concentration at which the toxic effect on the cells reaches its halfway point) at 144 h in data set [1] is greater than 100000 nM.
`O=C(Nc1ccc(-c2nnc(-c3ccccc3)o2)cc1)c1cccc(OC(F)F)c1` [Example 17, 3-(difluoromethoxy)-N-[4-(5-phenyl-1,3,4-oxadiazol-2-yl)phenyl]benzamide]: the IC50 was 1460 nM in the data set on HBsAg and 2790 nM with HBeAg. The CC50 at 144 h in data set [1] was greater than 100000 nM.
In the case of `O=C(Nc1ccc(-c2nnc(-c3ccccc3)o2)cc1)c1ccc(F)cc1` [Example 12, 4-fluoro-N-[4-(5-phenyl-1,3,4-oxadiazol-2-yl)phenyl]benzamide], the IC50 in the data set with HBsAg was 6200 nM; in the data set with HBeAg, 6330 nM. This compound showed a CC50 at 144 h in data set [1] greater than 100000 nM.
The corresponding values for `CC(C)C(=O)Nc1ccc(-c2nnc(-c3ccccc3)o2)cc1` [Example 6, 2-methyl-N-[4-(5-phenyl-1,3,4-oxadiazol-2-yl)phenyl]propanamide] are 1330 nM, 2200 nM and greater than 100000 nM.
The matching figures for `O=C(Nc1ccc(-c2nnc(-c3ccccc3)o2)cc1)C1CCCC1` [Example 7, N-[4-(5-phenyl-1,3,4-oxadiazol-2-yl)phenyl]cyclopentanecarboxamide]: 510 nM, 770 nM and greater than 100000 nM.
